Assays:
Δ80PmHS2 = Δ80PmHS2 (Pasteurella multocida, UniProt Q5SGE1); assay: apparent kinetics; type: biochemical; conditions: alpha1-4-GlcNAcT activity (acceptor; donor not stated in main text)
PmHS2 = PmHS2 (Pasteurella multocida, UniProt Q5SGE1); assay: apparent kinetics; type: biochemical; conditions: alpha1-4-GlcNAcT activity (acceptor; donor not stated in main text)

## GlcAβ2AA
Δ80PmHS2
  Km: 5.3 ± 0.7 mM
PmHS2
  Km: 4 ± 0.6 mM

— PMC7842274 (ACS catalysis, 2020)
